From ChEMBL document CHEMBL3217518, “Biological evaluation of imidazolium- and ammonium-based salts as HIV-1 integrase inhibitors” (Medchemcomm, 2011) come the findings set out here.

Test [1] has as its target T1, Human immunodeficiency virus type 1 integrase (Human immunodeficiency virus 1, UniProt Q7ZJM1). Put plainly: Inhibition of HIV1 recombinant integrase 3' processing activity using [32P]-radiolabeled full-length DNA as substrate after 1 hr by densitometric analysis.
Test [2] has as its target T1, Human immunodeficiency virus type 1 integrase. As to the kind of experiment: Inhibition of HIV1 recombinant integrase strand transfer activity using [32P]-radiolabeled full-length DNA as substrate after 1 hr by densitometric analysis.
Test [3] has the same target. Put plainly: Inhibition of HIV1 recombinant integrase strand transfer activity using precleaved LTR DNA as substrate after 1 hr by densitometric analysis.
The target in test [4] is Human immunodeficiency virus type 1 integrase (Human immunodeficiency virus 1) (UniProt Q7ZJM1). Put plainly: Selectivity ratio of IC50 for HIV1 recombinant integrase strand transfer activity using precleaved LTR DNA as substrate to IC50 for HIV1 recombinant integrase strand transfer activity using [32P]-radiolabeled full-length DNA as substrate.

Each structure is given as a SMILES string.

T1 sequence (Q7ZJM1 whole entry): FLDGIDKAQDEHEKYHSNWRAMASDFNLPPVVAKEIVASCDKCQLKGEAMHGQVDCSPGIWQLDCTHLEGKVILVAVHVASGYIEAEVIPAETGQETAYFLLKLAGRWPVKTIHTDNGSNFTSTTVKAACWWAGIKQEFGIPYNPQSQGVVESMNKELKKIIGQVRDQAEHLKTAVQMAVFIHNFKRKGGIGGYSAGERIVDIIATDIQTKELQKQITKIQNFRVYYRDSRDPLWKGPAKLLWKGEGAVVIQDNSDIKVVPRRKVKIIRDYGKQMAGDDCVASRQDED
Human immunodeficiency virus type 1 integrase (Human immunodeficiency virus 1), sequence (Q7ZJM1 as listed by the source): as the sequence (Q7ZJM1 whole entry) above

As a reminder, the IC50 is the midpoint of a concentration-inhibition curve. On to `CCCCCCCC[n+]1ccn(C)c1`, for which the IC50 in test [1] and in test [2] was over 100 µM in each case.

`CCCCCCCCCCCCCCn1cc[n+](C)c1`: the values for the IC50 in test [1] and in test [2] were 55.2 µM and 20.2 µM, respectively.

`CCCCCCCCCCn1cc[n+](C)c1`: the IC50 in test [1] and in test [2] was over 333 µM in each case.

For `CCCCCCCC[n+]1ccccc1`, the IC50 in test [1] and in test [2] was over 100 µM each time.

As to `CCCCCCCC[N+](C)(CCCCCCCC)CCCCCCCC` [listing 1 of 2 here], the IC50 in test [1] is 6.8 µM; in test [2] it was 2.8 µM.

Regarding `CCCCCCCCCCCCn1cc[n+](C)c1`, the IC50 in test [1] came to 72 µM; in test [2] it was 36.6 µM.

For `C[N+](C)(C)C.O=C1O[B-]2(OC1=O)OC(=O)C(=O)O2`, the IC50 in test [1] was over 333 µM; in test [2], 310 µM.

Regarding `CCCCCCCCCCCCCCCCCCn1ccnc1`, the IC50 in test [1] and in test [2] was over 333 µM each time.

As for `C[N+](C)(C)C.FC(F)(F)C(F)(F)[P-](F)(F)(F)(C(F)(F)C(F)(F)F)C(F)(F)C(F)(F)F`, the IC50 was 138 µM in test [1] and 38.5 µM in test [2].

Turning to `CCCCCCCCN(C)CCCCCCCC`, the IC50 in test [1] and in test [2] was over 333 µM throughout.

In the case of `CCCCCCCCCCCCCCCCCC[n+]1ccn(C)c1.O=S(=O)([N-]S(=O)(=O)C(F)(F)F)C(F)(F)F`, the values for the IC50 in test [1], in test [3] and in test [2] were 1.6 µM, 4 µM and 1.53 µM, respectively.

As for `CCCCCCCC[N+]1(C)CCCC1`, the IC50 in test [1] and in test [2] was over 100 µM each time.

Turning to `CCCCCCCCCCn1ccnc1`, the IC50 in test [1] and in test [2] was over 333 µM each time.

As for `CCCCCCCCCCCCCCCCCC[n+]1ccn(C)c1` [listing 1 of 2 here], the IC50 came to 1.7 µM in test [1], 3.5 µM in test [3] and 1.1 µM in test [2].

Take `CCCCCCCCCCCCCCCCCC[n+]1ccn(C)c1` [listing 2 of 2 here]: the IC50 in test [2] was found to be 1.4 µM.

In the case of `CCCCCCCCN(CCCCCCCC)CCCCCCCC`, the IC50 in test [1] and in test [2] was over 333 µM in each case.

Regarding `CCCCCCCC[N+](C)(CCCCCCCC)CCCCCCCC.O=S(=O)([N-]S(=O)(=O)C(F)(F)F)C(F)(F)F`, the IC50 in test [1] was over 100 µM; in test [2], 6.6 µM.

For the compound `CCCCCCCCCCCCCCCCCCPCCCCCCCCCCCCCC.O=S(=O)(NS(=O)(=O)C(F)(F)F)C(F)(F)F` (stereo not given), the IC50 in test [1] and in test [2] was over 100 µM in each case.

Turning to `CCCCCCCC[N+](C)(CCCCCCCC)CCCCCCCC` [listing 2 of 2 here], the results for the IC50 in test [1] and in test [2] were 9 µM and 6.12 µM, respectively.

In the case of `CCCCCCCCCCCCCCCCn1cc[n+](C)c1`, the IC50 is 2.5 µM in test [1], 5.6 µM in test [3] and 1.3 µM in test [2]. For the same compound, in test [4], the Ratio IC50 worked out at 3.

`CN(C)C(N(C)C)N(C)C`: the IC50 in test [1] and in test [2] was over 100 µM each time.
